Several values for one entry are separate records, joined by “and”; a condition that tells them apart may be missing. Equal values may be shown once. Read-outs that look alike come from different tables or passages of the source.
Columns and labels:
[1] = Viscosity (Rheosense mVroc Viscometer); assay type: physicochemical; settings: approximately 10 mg/mL peptide in 10 mM Tris + 3 mg/mL m-cresol at pH 8.0; 25° C.; shear rate 1934 s^−1
Experimental: Viscosity of compounds of the present invention is measured in a Rheosense mVroc Viscometer with the following settings:
(a) Syringe size: 500 μL syringe
(b) Flow Rate: 100 μL/min flow rate
(c) Average Temperature: 25° C.
(d) Shear Rate: 1934 s^−1
Dry powder (compound) is weighed out, dissolved in water as a cloudy precipitate, and titrated to approximately pH 8.0 with 1N NaOH. The solution is sonicated and swirled by hand until peptide is in solution. Samples are sterile filtered (0.22 μm PVDF filters). Samples are then analyzed by UV-Vis to assess stock solution concentrations. Solutions are diluted to final concentration using 3× m-cresol in 10 mM Tris pH 8.0 buffer to final concentrations of approximately 10 mg/mL peptide by weight in 10 mM Tris+3 mg/mL m-cresol at pH 8.0. Samples were filtered through 0.22 μm filters immediately prior to viscosity analysis. 25 μL of sample are removed to verify concentration by RP-HPLC before and after analysis.
Water and buffer control samples are measured before and after each sample is analyzed. The instrument is washed with buffer (3×) in between analysis of each sample. The samples are loaded into individual syringes and analyzed. The first measurement is not included in the final calculation to allow for equilibration with the system. Samples are then analyzed in triplicate (n=3).
The viscosity of Compounds 1-4 was measured essentially as described in this assay.

DIO mice (C57BL/6) = assay: Effects on energy expenditure in DIO mice (indirect calorimetry); assay type: in vivo, mouse; settings: for Cumulative Heat (Kcal/kg lean mass/3 day): test article 15 nmol/kg, semaglutide 60 nmol/kg sc every three days
Experimental: Seven to eight months old male DIO mice (C57BL/6) weighing 45-50 g are used in this study to assess the effect of compounds of the present invention on energy metabolism. Animals are individually housed in a temperature-controlled (24° C.) facility with a 12 hour light/dark cycle (lights on 22:00), and free access to food (TD95217)(Teklad) and water. After 2 weeks acclimation to the facility, mice are randomized to treatment groups (N=6/group) based on body weight so each group has similar starting mean body weight. Animals are placed in a PhenoMaster/LabMaster calorimeter (TSE Systems, Chesterfield, Mo.) for 8 days of acclimation.
Heat and […] (RER) are measured by indirect calorimetry as described using an open-circuit calorimetry system. RER is the ratio of the volume of CO2 produced (VCO2) to the volume of O2 consumed (VO2). Heat is calculated with lean body weight considered. The energy expenditure is kcal/kg/3 day and expressed as mean±SEM of 6 mice per group. Statistical significance is assessed by two-way ANOVA followed by Tukey's multiple comparison test.

rat GLP-1-R = molecular target: T1, rat GLP-1-R (Rattus norvegicus, UniProt P32301); assay: Functional activation of the rat GLP-1-R in insulinoma cell line INS1 832-3 (cAMP); assay type: cell-based
T1 construct: stimulating cAMP production at the endogenous GLP-1 receptors; endogenous in cells; host or cells: INS1 832-3 rat insulinoma cells
T1 sequence (P32301 22-463): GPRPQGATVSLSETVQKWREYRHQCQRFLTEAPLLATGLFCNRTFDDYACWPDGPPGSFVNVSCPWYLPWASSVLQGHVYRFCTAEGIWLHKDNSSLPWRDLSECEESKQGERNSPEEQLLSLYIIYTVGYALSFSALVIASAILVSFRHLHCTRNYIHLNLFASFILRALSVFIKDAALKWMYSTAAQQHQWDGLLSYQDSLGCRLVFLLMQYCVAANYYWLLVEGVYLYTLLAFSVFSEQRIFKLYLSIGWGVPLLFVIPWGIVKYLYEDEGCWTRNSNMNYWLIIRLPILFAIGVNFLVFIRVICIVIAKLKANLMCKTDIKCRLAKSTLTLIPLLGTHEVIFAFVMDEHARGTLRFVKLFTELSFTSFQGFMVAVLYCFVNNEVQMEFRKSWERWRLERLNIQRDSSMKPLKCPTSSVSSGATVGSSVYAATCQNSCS
Experimental: Performance of the assay requires detachment of the cells from culture flasks using Enzyme Free Cell Stripper and pelleted by centrifugation at 1000 rpm for 5 minutes at room temperature. […] After 2 hours starvation, cells are treated with compound by adding 10 μl of 5× compound dilutions into the cell plates (n=2) and incubated in a 37° C., 5% CO2 incubator for 30 minutes.
cAMP concentration is measured using a HTRF cAMP assay kit (Cisbio): cAMP-d2 conjugate in cell lysis buffer (20 μl) followed by the antibody anti-cAMP-Eu^3+-Cryptate, also in cell lysis buffer (20 μl), is added to the cells of the plate.
The assay is performed with duplicated plates.

[2] = Pharmacokinetics in cynomolgus monkeys; assay type: in vivo; settings: for Cmax: read-out: C0 or Cmax
Experimental: The compounds are administered by a single intravenous or subcutaneous dose of 50 nmole/kg or 250 nmole/kg.
The plasma concentrations of compounds are determined by a LC/MS method. Briefly, a compound of the present invention is extracted from 100% monkey plasma (25 μl) using acetonitrile. Two distinct layers are formed upon centrifugation with the compound located in the liquid layer. An 80 μl aliquot of the supernatant was transferred to a 96-well plate, diluted with 150 μl of water and 25 μl of formic acid. The diluted sample (10 μl) was injected onto a Supelco Analytical Discovery BIO Wide Pore C5-3, 5 cm×1 mm, 3 um column. The column effluent is directed into a Thermo Q-Exactive mass spectrometer for detection and quantitation.

hGcg-R = hGcg-R (Homo sapiens, UniProt P47871); assay: Functional activation of hGcg-R in primary human hepatocytes (cAMP); assay type: cell-based; design: stimulating cAMP production at the endogenous Gcg receptors; endogenous in cells; host or cells: cryopreserved primary human hepatocytes; settings: primary human hepatocytes
hGcg-R, sequence (P47871 26-477): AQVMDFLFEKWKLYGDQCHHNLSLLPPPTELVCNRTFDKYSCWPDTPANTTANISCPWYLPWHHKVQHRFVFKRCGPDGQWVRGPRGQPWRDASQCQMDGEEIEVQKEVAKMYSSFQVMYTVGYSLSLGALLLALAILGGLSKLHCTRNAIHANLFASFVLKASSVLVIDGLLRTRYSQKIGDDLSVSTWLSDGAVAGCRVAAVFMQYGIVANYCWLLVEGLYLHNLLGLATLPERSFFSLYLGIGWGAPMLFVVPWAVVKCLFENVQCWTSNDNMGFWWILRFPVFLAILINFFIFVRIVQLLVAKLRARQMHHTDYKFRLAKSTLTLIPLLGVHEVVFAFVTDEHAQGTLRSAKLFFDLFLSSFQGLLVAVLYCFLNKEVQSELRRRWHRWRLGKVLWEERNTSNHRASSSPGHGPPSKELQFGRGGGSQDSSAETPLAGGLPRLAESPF
Experimental: Primary human hepatocytes are used to determine functional activity of compounds on stimulating cAMP production at the endogenous Gcg receptors. Vials of human primary hepatocytes are frozen in a liquid nitrogen tank. Upon removal, vials are thawed immediately in a water bath having a temperature of 37° C. Cell suspension is then transferred to 50 ml CHRM (Gibco/Life Technologies cat#CM7000 Cryopreserved Hepatocyte Recovery Medium).
The cell suspension is centrifuged at 1,000×g for 10 min. Cell pellets are resuspended in 5 ml of Plating Media after removing the CHRM by aspiration. The Plating Media is prepared by adding entire contents of CM3000 Supplement Packs to 500 ml Williams Media (Gibco/Life Technologies), followed by sterile filtration through a 0.22 μm membrane.
The cell density is counted on hemocytometer, by adding 100 μl of cell suspension to 100 μl Trypan Blue (HyClone Trypan Blue 0.04%, catalog number SV30084.01). The cell suspension is further diluted in the Plating Media to the final cell density of 0.8×10^6 cells per ml. […] 65 ml of the cell suspension is then added to each well of the Collagen coated 96-well plate to final cell density 50,000 cells per well. The cell plate is incubated in a 37° C., 5% CO2 incubator for 3-4 hours.
After 3-4 hours incubation, the media is aspirated and replaced with 100 ml Maintenance Media. The maintenance media is prepared by adding entire contents of CM4000 Supplement Packs to 500 ml Williams Media (Gibco/Life Technologies), followed by sterile filtration through a 0.22 μm membrane. The cell plate is returned to the 37° C., 5% CO2 incubator overnight in preparation for the cAMP assay.
The cell plate is removed from the incubator and the media is removed by gentle aspiration without disturbing the cell monolayer.
cAMP concentration is measured using a HTRF cAMP assay kit (Cisbio): cAMP-d2 conjugate in cell lysis buffer (40 μl) followed by the antibody anti-cAMP-Eu^3+-Cryptate, also in cell lysis buffer (40 μl), is added to the cells of the plate.

[3] = Table 9: single IV 50 nmol/kg, individual animals
[4] = Table 9: single SC 50 nmol/kg, individual animals
[5] = Table 9: single SC 250 nmol/kg, individual animals
[6] = male, cynomolgus monkey, plasma, iv, 50 nmol/kg, Table 9: single IV 50 nmol/kg, mean
[7] = male, cynomolgus monkey, plasma, sc, 50 nmol/kg, Table 9: single SC 50 nmol/kg, individual animals
[8] = male, cynomolgus monkey, plasma, sc, 50 nmol/kg, Table 9: single SC 50 nmol/kg, mean
[9] = male, cynomolgus monkey, plasma, sc, 250 nmol/kg, Table 9: single SC 250 nmol/kg, individual animals
[10] = male, cynomolgus monkey, plasma, sc, 250 nmol/kg, Table 9: single SC 250 nmol/kg, mean

Question: Which “500 μL syringe Viscosity” value [1] does the source give for `CC(C)C[C@H](NC(=O)[C@H](CC(C)C)NC(=O)[C@H](Cc1c[nH]c2ccccc12)NC(=O)[C@H](CCC(=O)O)NC(=O)[C@@H](NC(=O)[C@H](Cc1ccccc1)NC(=O)[C@H](CCC(=O)O)NC(=O)[C@H](CCCCNC(=O)COCCOCCNC(=O)COCCOCCNC(=O)CC[C@H](NC(=O)CCCCCCCCCCCCCCCCCCC(=O)O)C(=O)O)NC(=O)[C@H](C)NC(=O)[C@H](CCCCN)NC(=O)[C@H](CCCCN)NC(=O)[C@H](CCC(=O)O)NC(=O)[C@H](CC(=O)O)NC(=O)[C@H](CC(C)C)NC(=O)[C@H](Cc1ccc(O)cc1)NC(=O)[C@H](CCCCN)NC(=O)[C@H](CO)NC(=O)[C@H](Cc1ccc(O)cc1)NC(=O)[C@H](CC(=O)O)NC(=O)[C@H](CO)NC(=O)[C@@H](NC(=O)[C@H](Cc1ccccc1)NC(=O)[C@@H](NC(=O)CNC(=O)[C@H](CCC(N)=O)NC(=O)C(C)(C)NC(=O)[C@@H](N)Cc1c[nH]cn1)[C@@H](C)O)[C@@H](C)O)C(C)C)C(=O)N[C@@H](CCC(=O)O)C(=O)NCC(=O)NCC(=O)N1CCC[C@H]1C(=O)N[C@@H](CO)C(=O)N[C@@H](CO)C(=O)NCC(N)=O` [Compound 2] here?
Answer: 1.04 cP or mPa-s

Question: What about the metabolic rate (DIO mice (C57BL/6); DIO mice, chronic treatment) of the same compound?
Answer: increased their metabolic rate starting from Week 2

Question: What about the “Cumulative Heat (Kcal/kg lean mass/3 day)” value (“Cumulative Heat” for short) (DIO mice (C57BL/6); Day 1 to Day 4) of the same compound?
Answer: 1746 ± 96 Kcal/kg lean mass/3 day

Question: And the “Cumulative Heat” value (DIO mice (C57BL/6); Day 4 to Day 7)?
Answer: 1778 ± 132 Kcal/kg lean mass/3 day

Question: And the “Cumulative Heat” value (DIO mice (C57BL/6); Day 7 to Day 10)?
Answer: 2549 ± 129 Kcal/kg lean mass/3 day

Question: And the “Cumulative Heat” value (DIO mice (C57BL/6); Day 10 to Day 13)?
Answer: 2568 ± 147 Kcal/kg lean mass/3 day

Question: And the EC50 (rat GLP-1-R; INS1 832-3 cells, cAMP, 30 minutes)?
Answer: 62 nM

Question: And the cAMP production (rat GLP-1-R; INS1 832-3 cells, data not shown)?
Answer: increased cAMP production in a dose-dependent manner

Question: And the Emax (rat GLP-1-R; INS1, percent of maximal response with native GLP-1 peptide at 300 nM)?
Answer: 104%

Question: What about the AUC(0-inf) [2, 3] of the same compound?
Answer: 93.174 µM·h

Question: What about the CL/F [2, 3] of the same compound?
Answer: 12.7 mL/day/kg and 13 mL/day/kg

Question: And the Cmax [2, 3]?
Answer: 1100 nM

Question: What about the T1/2 ([2]; Table 9: single IV 50 nmol/kg, male cynomolgus monkeys, individual animals) of the same compound?
Answer: 131 h

Question: What about the CL/F ([2]; Table 9: single IV 50 nmol/kg, mean) of the same compound?
Answer: 12.7 mL/day/kg

Question: What about the AUC(0-inf) [2, 4] of the same compound?
Answer: 82.792 µM·h

Question: And the CL/F [2, 4]?
Answer: 14.4 mL/day/kg

Question: And the T1/2 [2, 4]?
Answer: 106 h

Question: What about the Cmax [2, 4] of the same compound?
Answer: 452 nM

Question: And the AUC(0-inf) [2, 5]?
Answer: 540.175 µM·h

Question: And the CL/F [2, 5]?
Answer: 11 mL/day/kg

Question: What about the T1/2 [2, 5] of the same compound?
Answer: 104 h

Question: And the Cmax [2, 5]?
Answer: 3620 nM

Question: What about the AUC(0-inf) ([2]; cynomolgus monkey, plasma, sc, 250 nmol/kg, Table 9: single SC 250 nmol/kg, mean, read-out: AUC0-inf) of the same compound?
Answer: 485 µM·h

Question: And the CL/F ([2]; cynomolgus monkey, plasma, sc, 250 nmol/kg, Table 9: single SC 250 nmol/kg, mean, read-out: CL/F (converted))?
Answer: 12.5 mL/day/kg

Question: What about the AUC(0-inf) ([2]; male, cynomolgus monkey, plasma, iv, 50 nmol/kg, Table 9: single IV 50 nmol/kg, individual animals, read-out: AUC0-inf) of the same compound?
Answer: 94.8 µM·h

Question: And the Cmax ([2]; male, cynomolgus monkey, plasma, iv, 50 nmol/kg, Table 9: single IV 50 nmol/kg, individual animals)?
Answer: 1020 nM

Question: And the half-life ([2]; male, cynomolgus monkey, plasma, iv, 50 nmol/kg, Table 9: single IV 50 nmol/kg, male cynomolgus monkeys, individual animals)?
Answer: 88 h

Question: What about the half-life [2, 6] of the same compound?
Answer: 110 h

Question: What about the AUC(0-inf) ([2]; male, cynomolgus monkey, plasma, iv, 50 nmol/kg, Table 9: single IV 50 nmol/kg, mean, read-out: AUC0-inf) of the same compound?
Answer: 94 µM·h

Question: What about the Cmax [2, 6] of the same compound?
Answer: 1060 nM

Question: What about the Tmax [2, 7] of the same compound?
Answer: 24 h

Question: And the half-life [2, 7]?
Answer: 137 h

Question: What about the AUC(0-inf) ([2]; male, cynomolgus monkey, plasma, sc, 50 nmol/kg, Table 9: single SC 50 nmol/kg, individual animals, read-out: AUC0-inf) of the same compound?
Answer: 101 µM·h

Question: And the Cmax [2, 7]?
Answer: 474 nM

Question: And the CL/F ([2]; male, cynomolgus monkey, plasma, sc, 50 nmol/kg, Table 9: single SC 50 nmol/kg, individual animals, read-out: CL/F (converted))?
Answer: 12 mL/day/kg

Question: And the Tmax [2, 8]?
Answer: ~24 h

Question: And the half-life [2, 8]?
Answer: 122 h

Question: What about the AUC(0-inf) ([2]; male, cynomolgus monkey, plasma, sc, 50 nmol/kg, Table 9: single SC 50 nmol/kg, mean, read-out: AUC0-inf) of the same compound?
Answer: 91.9 µM·h

Question: What about the Cmax [2, 8] of the same compound?
Answer: 463 nM

Question: And the CL/F ([2]; male, cynomolgus monkey, plasma, sc, 50 nmol/kg, Table 9: single SC 50 nmol/kg, mean, read-out: CL/F (converted))?
Answer: 13.2 mL/day/kg

Question: What about the Tmax [2, 9] of the same compound?
Answer: 12 h

Question: What about the half-life [2, 9] of the same compound?
Answer: 115 h

Question: What about the AUC(0-inf) ([2]; male, cynomolgus monkey, plasma, sc, 250 nmol/kg, Table 9: single SC 250 nmol/kg, individual animals, read-out: AUC0-inf) of the same compound?
Answer: 430 µM·h

Question: And the Cmax [2, 9]?
Answer: 3640 nM

Question: And the CL/F ([2]; male, cynomolgus monkey, plasma, sc, 250 nmol/kg, Table 9: single SC 250 nmol/kg, individual animals, read-out: CL/F (converted))?
Answer: 13.9 mL/day/kg

Question: And the Tmax [2, 10]?
Answer: 12 h

Question: And the half-life [2, 10]?
Answer: 110 h

Question: What about the Cmax [2, 10] of the same compound?
Answer: 3630 nM

Question: And the EC50 (hGcg-R; cAMP, 1 hour)?
Answer: 159 nM

Question: What about the cAMP production (hGcg-R; data not shown) of the same compound?
Answer: increased cAMP production in a dose-dependent manner

Reference: patent US9938335B2, “Glucagon and GLP-1 co-agonist compounds” (Eli Lilly and Company, priority 2015, dated 2018)
